# Measured values as given in paper PMC3692405, “Disease-associated mutations in CNGB3 promote cytotoxicity in photoreceptor-derived cells” (Molecular Vision, 2013).
# Where two headings read alike, the source gives them in different places.
# Legend:
# [1] = biological target: T1, CNGA3 plus CNGB3 T383fsX channels (Homo sapiens, UniProt Q16281); experiment: Inside-out patch-clamp recording of channels expressed in Xenopus oocytes (CNGB3 T383fsX); type: biochemical
# T1 construct: expressed in transfected cells; host or cells: Xenopus laevis oocytes injected with cRNA transcribed from pGEMHE constructs
# T1 sequence (Q16281 1-694): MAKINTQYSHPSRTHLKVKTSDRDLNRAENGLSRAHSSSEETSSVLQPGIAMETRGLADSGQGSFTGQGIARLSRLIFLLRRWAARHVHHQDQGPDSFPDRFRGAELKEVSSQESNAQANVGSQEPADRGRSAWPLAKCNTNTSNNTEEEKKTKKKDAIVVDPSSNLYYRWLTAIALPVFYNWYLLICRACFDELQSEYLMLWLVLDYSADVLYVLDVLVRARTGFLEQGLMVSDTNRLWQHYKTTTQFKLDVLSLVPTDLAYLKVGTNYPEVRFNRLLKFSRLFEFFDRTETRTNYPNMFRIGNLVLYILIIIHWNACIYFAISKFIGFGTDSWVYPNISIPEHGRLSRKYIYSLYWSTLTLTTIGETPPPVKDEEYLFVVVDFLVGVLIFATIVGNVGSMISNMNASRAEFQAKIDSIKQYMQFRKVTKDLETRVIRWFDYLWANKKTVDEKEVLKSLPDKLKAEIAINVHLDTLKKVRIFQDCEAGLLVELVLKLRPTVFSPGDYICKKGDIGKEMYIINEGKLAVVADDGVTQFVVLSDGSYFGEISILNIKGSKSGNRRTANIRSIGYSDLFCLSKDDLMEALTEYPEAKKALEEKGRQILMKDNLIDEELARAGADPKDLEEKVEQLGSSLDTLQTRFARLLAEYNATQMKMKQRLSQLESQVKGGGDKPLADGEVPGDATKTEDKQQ
# Procedure: (§1) For heterologous expression in Xenopus laevis oocytes, identical amounts of cDNA were linearized using SphI or NheI, and capped cRNA was transcribed in vitro using the T-7 RNA polymerase mMESSAGE mMACHINE® kit (Ambion, Austin, TX). cRNA concentrations and relative amounts were determined by denaturing gel electrophoresis and KODAK 1D image analysis software (Rochester, NY), as well as by spectrophotometry. […] Oocytes were incubated in ND96 (96 mM NaCl, 2 mM KCl, 1.8 mM CaCl2, 1 mM MgCl2, and 5 mM HEPES, pH 7.6, supplemented with 10 μg/ml gentamycin).
# (§2) Two to seven days after microinjection of cRNA, patch-clamp experiments were performed using the inside-out configuration with an Axopatch 200B amplifier (Axon Instruments, Foster City, CA). Recordings were made at 20–23 °C. Data were acquired using Pulse software (HEKA Elektronik, Lambrecht, Germany). Current traces were elicited by voltage steps from a holding potential of 0 mV to +80 mV, then to −80 mV and back to 0 mV. Initial pipette resistances were 0.4–0.8 megaohms. Intracellular and extracellular solutions contained 130 mM NaCl, 0.2 mM EDTA, and 3 mM HEPES (pH 7.2). Intracellular solutions were exchanged using an RSC-160 rapid solution changer (Molecular Kinetics, Indianapolis, IN). Currents in the absence of cyclic nucleotides were subtracted. For channel activation by CPT-cGMP or CPT-cAMP, dose–response data were fitted with the Hill equation, I/Imax=([cNMP]^h/(K1/2^h + [cNMP]^h)), where I is the current amplitude at +80 mV, Imax is the maximum current elicited by saturating concentration of ligand, [cNMP] is the ligand concentration, K1/2 is the apparent ligand affinity, and h is the Hill slope. We measured sensitivity to block by L-cis-diltiazem (RBI, Natick, MA) applied to the intracellular face of the patch in the presence of 0.1 μM CPT-cGMP. Data were fit with a modified Hill equation in the form I blocker/I=(K1/2^h/(K1/2^h + [blocker]^h)). Data were analyzed using Igor (Wavemetrics, Lake Oswego, OR), SigmaPlot, and SigmaStat (Systat Software Inc., San Jose, CA). All values are reported as the mean±standard error of the mean of n experiments unless otherwise indicated. Statistical significance was determined using a Student t test or Mann–Whitney rank sum test, and a p value of <0.05 was considered significant.
# [2] = biological target: T2, WT human CNGA3 plus WT CNGB3 heteromeric channels (Homo sapiens, UniProt Q16281+Q9NQW8); experiment: Inside-out patch-clamp recording of channels expressed in Xenopus oocytes (WT heteromeric); type: biochemical
# T2 construct: expressed in transfected cells; host or cells: Xenopus laevis oocytes injected with cRNA transcribed from pGEMHE constructs
# T2 sequence (Q16281 1-694): T1 sequence (Q16281 1-694)
# T2 sequence (Q9NQW8 1-809): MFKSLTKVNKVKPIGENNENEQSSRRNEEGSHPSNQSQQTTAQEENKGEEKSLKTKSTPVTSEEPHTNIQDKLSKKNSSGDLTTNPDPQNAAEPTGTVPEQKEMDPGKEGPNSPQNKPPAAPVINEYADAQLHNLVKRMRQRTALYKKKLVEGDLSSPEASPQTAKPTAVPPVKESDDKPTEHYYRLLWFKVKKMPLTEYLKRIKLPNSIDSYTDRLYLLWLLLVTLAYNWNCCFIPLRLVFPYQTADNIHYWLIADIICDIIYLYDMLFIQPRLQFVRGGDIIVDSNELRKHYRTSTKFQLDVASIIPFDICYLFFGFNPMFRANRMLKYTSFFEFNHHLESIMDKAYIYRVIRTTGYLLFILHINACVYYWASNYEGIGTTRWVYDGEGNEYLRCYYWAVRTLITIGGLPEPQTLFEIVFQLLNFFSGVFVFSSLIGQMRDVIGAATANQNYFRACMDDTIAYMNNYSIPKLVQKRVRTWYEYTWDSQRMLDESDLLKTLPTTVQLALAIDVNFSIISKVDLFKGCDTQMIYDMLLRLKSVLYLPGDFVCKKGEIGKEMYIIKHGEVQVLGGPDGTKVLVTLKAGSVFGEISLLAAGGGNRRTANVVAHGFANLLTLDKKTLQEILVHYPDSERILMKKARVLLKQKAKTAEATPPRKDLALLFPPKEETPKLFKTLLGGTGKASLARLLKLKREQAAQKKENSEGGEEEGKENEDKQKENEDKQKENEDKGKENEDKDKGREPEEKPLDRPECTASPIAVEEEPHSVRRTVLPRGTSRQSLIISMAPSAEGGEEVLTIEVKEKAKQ
# Procedure: as §1, §2
# [3] = representative patch, Figure 5A
# [4] = representative patch, Figure 1B
smiles,measurement,setting,value
"Nc1ncnc2c1nc(Sc1ccc(Cl)cc1)n2[C@@H]1O[C@@H]2COP(=O)(O)O[C@H]2[C@H]1O [CPT-cAMP, CPT-adenosine 3′,5′-cyclic monophosphate]","relative agonist efficacy Imax, CPT-cAMP/Imax, CPT-cGMP","[1]; +80 mV, CPT-cAMP 100 μM vs CPT-cGMP 4 μM, mean±SEM, n=8",0.07±0.01
same,"Hill slope h, CPT-cAMP activation","[1]; Hill fit, mean±SEM, n=9",1.8±0.1
same,EC50,"[1]; Hill fit, mean±SEM, n=9, read-out: apparent affinity K1/2, CPT-cAMP (channel activation)",29.8 ± 1.9 µM
same,"Hill slope h, CPT-cAMP, representative dose-response",[1]; [3],1.6
same,EC50,"[1]; representative patch, Figure 5A, read-out: K1/2, cAMP, representative dose-response for CPT-cAMP activation",27.9 µM
same,"relative agonist efficacy Imax, CPT-cAMP/Imax, CPT-cGMP","[2]; +80 mV, CPT-cAMP 100 μM vs CPT-cGMP 4 μM, mean±SEM, n=10",0.25±0.03
same,"Hill slope h, CPT-cAMP activation","[2]; Hill fit, mean±SEM, n=10",1.7±0.1
same,EC50,"[2]; Hill fit, mean±SEM, n=10, read-out: apparent affinity K1/2, CPT-cAMP (channel activation)",28.1 ± 2.6 µM
same,"Hill slope h, CPT-cAMP, representative dose-response",[2]; [3],1.4
same,EC50,"[2]; representative patch, Figure 5A, read-out: K1/2,CPT-cAMP, representative dose-response",28.3 µM
"Nc1nc2c(nc(Sc3ccc(Cl)cc3)n2[C@@H]2O[C@@H]3COP(=O)(O)O[C@H]3[C@H]2O)c(=O)[nH]1 [CPT-cGMP, 8-(4-chlorophenylthio) guanosine 3′,5′-cyclic monophosphate]","Hill slope h, CPT-cGMP activation","[1]; +80 mV, Hill fit, mean±SEM, n=8",2.2±0.1
same,EC50,"[1]; +80 mV, Hill fit, mean±SEM, n=8, read-out: apparent CPT-cGMP affinity K1/2, CPT-cGMP (channel activation)",0.105 ± 0.0073 µM
same,maximum patch current density (Imax/area),"[1]; +80 mV, saturating CPT-cGMP (4 μM), mean±SEM, n=9",86.6±17.0 pA/μm^2
same,"Hill slope h, CPT-cGMP, representative dose-response",[1]; [4],1.9
same,EC50,"[1]; representative patch, Figure 1B, read-out: K1/2, cGMP, representative dose-response for CPT-cGMP activation",0.111 µM
same,"Hill slope h, CPT-cGMP activation","[2]; +80 mV, Hill fit, mean±SEM, n=13",1.5±0.05
same,EC50,"[2]; +80 mV, Hill fit, mean±SEM, n=13, read-out: apparent CPT-cGMP affinity K1/2, CPT-cGMP (channel activation)",0.254 ± 0.0181 µM
same,maximum patch current density (Imax/area),"[2]; +80 mV, saturating CPT-cGMP (4 μM), mean±SEM, n=13",55.1±10.9 pA/μm^2
same,"Hill slope h, CPT-cGMP, representative dose-response",[2]; [4],1.5
same,EC50,"[2]; representative patch, Figure 1B, read-out: K1/2,CPT-cGMP, representative dose-response",0.248 µM
same,potency relative to unmodified cGMP for channel activation,"[2]; unmodified cGMP values from refs 19, 26",80–100 fold
